The target in the assay is hPK-M2 (Homo sapiens, UniProt P14618). The assay is described as follows: Luminescent pyruvate kinase-luciferase coupled assay (KinaseGlo). The format is biochemical. The settings on record: for activation at 57 µM / hPK, M2 Max. Res.: KinaseGlo, % activation at 57 μM of compound; for activation at 57 µM: read-out: hPK, M2 Max. Res. As to the method:
Luminescent Pyruvate Kinase-Luciferase Coupled Assay.
Production of a luminescent signal based on the generation of ATP by pyruvate kinase was determined by using the ATP-dependent enzyme firefly luciferase. Three μL of substrate mix (at r.t.) in assay buffer (50 mM imidazole pH 7.2, 50 mM KCl, 7 mM MgCl2, 0.01% tween 20, 0.05% BSA) was dispensed into Kalypsys white solid bottom 1,536 well microtiter plates using a bottle-valve solenoid-based dispenser (Kalypsys). The final concentrations of substrates in the assay were 0.1 mM ADP and 0.5 mM PEP. […] Microtiter plates were incubated at r.t. for 1 hour and 2 uL of luciferase detection mix (Kinase-Glo, Promega at 4° C. protected from light) was added and luminescence was read with a ViewLux (Perkin Elmer) using a 5 second exposure/plate. Data was normalized for AC50 values to control columns containing uninhibited enzyme (n), and AC100 inhibition (i) according the following equation: Activation (%)=[(c−n)/(n−i)]*100 where c=compound, n=DMSO neutral, i=no enzyme control. […] Monitoring of activation was accomplished using enzyme at 3× the final concentration.

The mark [1] stands for this setting: luminescent pyruvate kinase-luciferase coupled assay (KinaseGlo), tables, read-out: hPK, M2 AC50.

Where two headings read alike, the source gives them in different places. Where only a bound is given, the exact number is not on record here.

Chain of hPK-M2 (P14618 whole entry): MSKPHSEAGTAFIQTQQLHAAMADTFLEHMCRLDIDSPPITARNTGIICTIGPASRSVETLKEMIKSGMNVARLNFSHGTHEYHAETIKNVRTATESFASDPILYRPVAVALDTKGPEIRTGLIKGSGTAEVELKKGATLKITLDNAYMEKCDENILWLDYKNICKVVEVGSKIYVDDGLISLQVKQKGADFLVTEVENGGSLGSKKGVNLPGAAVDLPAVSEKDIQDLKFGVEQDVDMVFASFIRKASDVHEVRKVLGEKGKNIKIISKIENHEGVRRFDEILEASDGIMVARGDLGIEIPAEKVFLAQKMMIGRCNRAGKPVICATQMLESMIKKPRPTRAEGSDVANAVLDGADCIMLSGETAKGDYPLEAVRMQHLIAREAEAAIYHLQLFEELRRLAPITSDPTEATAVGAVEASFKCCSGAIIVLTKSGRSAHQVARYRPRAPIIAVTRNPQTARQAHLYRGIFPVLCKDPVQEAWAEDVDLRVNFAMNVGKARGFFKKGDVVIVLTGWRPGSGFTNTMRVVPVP

As a reminder, the AC50 is the midpoint of the concentration-response curve, whichever way the signal moves. As for `O=S(=O)(c1ccc2c(c1)OCCO2)N1CCCN(S(=O)(=O)c2c(F)cccc2F)CC1` [Compound 31, 1-(2,6-difluorophenylsulfonyl)-4-(2,3-dihydrobenzo[b][1,4]dioxin-6-ylsulfonyl)-1,4-diazepane], the activation at 57 µM turned out to be 120 ± 7.3%. For the same compound, the concentration at half-maximal activity (AC50) (luciferase-coupled assay, read-out: AC50) turned out to be 866 nM.

`O=S(=O)(NCCNS(=O)(=O)c1c(F)cccc1F)c1ccc2c(c1)OCCO2` [Compound 32, N-(2-(2,6-difluorophenylsulfonamido)ethyl)-2,3-dihydrobenzo[b][1,4]dioxine-6-sulfonamide]: the activation at 57 µM was determined as 60.3 ± 20.6%.

`O=S(=O)(NCCCNS(=O)(=O)c1c(F)cccc1F)c1ccc2c(c1)OCCO2` [Compound 33, N-(3-(2,6-difluorophenylsulfonamido)propyl)-2,3-dihydrobenzo[b][1,4]dioxine-6-sulfonamide]: the activation at 57 µM was determined as 106 ± 5.1%. The AC50 under setting [1] turned out to be 3850 ± 530 nM.

As for `O=S(=O)(NCCCCNS(=O)(=O)c1c(F)cccc1F)c1ccc2c(c1)OCCO2` [Compound 34, N-(4-(2,6-difluorophenylsulfonamido)butyl)-2,3-dihydrobenzo[b][1,4]dioxine-6-sulfonamide], the activation at 57 µM is 113 ± 14.6%. In addition, the AC50 under setting [1] worked out at 7970 ± 4050 nM.

With `O=S(=O)(NCCCCCNS(=O)(=O)c1c(F)cccc1F)c1ccc2c(c1)OCCO2` [Compound 35, N-(5-(2,6-difluorophenylsulfonamido)pentyl)-2,3-dihydrobenzo[b][1,4]dioxine-6-sulfonamide], the activation at 57 µM was 114 ± 1.4%. Besides, under setting [1], the AC50 amounted to 2330 ± 160 nM.

As to `O=S(=O)(NCCCCCCNS(=O)(=O)c1c(F)cccc1F)c1ccc2c(c1)OCCO2` [Compound 36, N-(6-(2,6-difluorophenylsulfonamido)hexyl)-2,3-dihydrobenzo[b][1,4]dioxine-6-sulfonamide], the activation at 57 µM turned out to be 110 ± 3%. The concentration at half-maximal activity (AC50) under setting [1] came to 4830 ± 310 nM.

As to `O=S(=O)(NC1CCN(S(=O)(=O)c2c(F)cccc2F)CC1)c1ccc2c(c1)OCCO2` [Compound 39, N-(1-(2,6-difluorophenylsulfonyl)piperidin-4-yl)-2,3-dihydrobenzo[b][1,4]dioxine-6-sulfonamide], the activation at 57 µM was 101 ± 1.9%. For the same compound, the concentration at half-maximal activity (AC50) under setting [1] came out at 3690 ± 1260 nM.

Turning to `O=S(=O)(NC1CCN(S(=O)(=O)c2ccc3c(c2)OCCO3)CC1)c1c(F)cccc1F` [Compound 40, N-(1-(2,3-dihydrobenzo[b][1,4]dioxin-6-ylsulfonyl)piperidin-4-yl)-2,6-difluorobenzenesulfonamide], the activation at 57 µM turned out to be 99.6 ± 3.1%. Moreover, the AC50 under setting [1] came out at 9000 ± 4500 nM.

For the compound `O=S(=O)(NC1CCN(S(=O)(=O)c2c(F)cccc2F)C1)c1ccc2c(c1)OCCO2` (centres unmarked) [Compound 41, N-(1-(2,6-difluorophenylsulfonyl)pyrrolidin-3-yl)-2,3-dihydrobenzo[b][1,4]dioxine-6-sulfonamide], the activation at 57 µM stood at 82.4 ± 18%. Moreover, the half-maximal activity concentration (AC50) under setting [1] is > 15000 nM.

Consider `O=S(=O)(NC1CCN(S(=O)(=O)c2ccc3c(c2)OCCO3)C1)c1c(F)cccc1F` (centres unmarked) [Compound 42, N-(1-(2,3-dihydrobenzo[b][1,4]dioxin-6-ylsulfonyl)pyrrolidin-3-yl)-2,6-difluorobenzenesulfonamide], for which the activation at 57 µM stood at 83.7 ± 24.2%. The AC50 under setting [1] is > 10000 nM.

With `O=S(=O)(NCC1CN(S(=O)(=O)c2c(F)cccc2F)C1)c1ccc2c(c1)OCCO2` [Compound 43], the activation at 57 µM turned out to be 93.3 ± 9%. The concentration at half-maximal activity (AC50) under setting [1] worked out at 4470 nM.

For the compound `O=S(=O)(NCC1CN(S(=O)(=O)c2ccc3c(c2)OCCO3)C1)c1c(F)cccc1F` [Compound 44, N-((1-(2,3-dihydrobenzo[b][1,4]dioxin-6-ylsulfonyl)azetidin-3-yl)methyl)-2,6-difluorobenzenesulfonamide], the activation at 57 µM amounted to 108 ± 5.3%. Further, under setting [1], the concentration at half-maximal activity (AC50) stood at 3050 ± 200 nM.

`C[C@H]1CN(S(=O)(=O)c2c(F)cccc2F)CCN1S(=O)(=O)c1ccc2c(c1)OCCO2` [Compound 45, (S)-4-(2,6-difluorophenylsulfonyl)-1-(2,3-dihydrobenzo[b][1,4]dioxin-6-ylsulfonyl)-2-methylpiperazine]: the activation at 57 µM worked out at 109 ± 9.4%. The AC50 under setting [1] is 4340 ± 740 nM.

Take `C[C@@H]1CN(S(=O)(=O)c2c(F)cccc2F)CCN1S(=O)(=O)c1ccc2c(c1)OCCO2` [Compound 46, (R)-4-(2,6-difluorophenylsulfonyl)-1-(2,3-dihydrobenzo[b][1,4]dioxin-6-ylsulfonyl)-2-methylpiperazine]: the activation at 57 µM is 98.8 ± 2.6%. For the same compound, the AC50 under setting [1] was determined as 3100 ± 1170 nM.

Regarding `C[C@@H]1CN(S(=O)(=O)c2ccc3c(c2)OCCO3)CCN1S(=O)(=O)c1c(F)cccc1F` [Compound 47, (R)-1-(2,6-difluorophenylsulfonyl)-4-(2,3-dihydrobenzo[b][1,4]dioxin-6-ylsulfonyl)-2-methylpiperazine], the activation at 57 µM was found to be 108 ± 9.9%. Besides, the concentration at half-maximal activity (AC50) under setting [1] stood at 9180 ± 2560 nM.

In the case of `C[C@H]1CN(S(=O)(=O)c2ccc3c(c2)OCCO3)CCN1S(=O)(=O)c1c(F)cccc1F` [Compound 48, (S)-1-(2,6-difluorophenylsulfonyl)-4-(2,3-dihydrobenzo[b][1,4]dioxin-6-ylsulfonyl)-2-methylpiperazine], the activation at 57 µM turned out to be 108 ± 8.4%. Further, the half-maximal activity concentration (AC50) under setting [1] is 2960 ± 200 nM.

Consider `Cc1cc2c(s1)c1cnn(Cc3ccccc3F)c(=O)c1n2C` [Compound 66, 2,4-Methyl-6-[(2-fluorophenyl)methyl]-4H-thieno[3,2-b]pyrrole[3,2-d]pyridazinone], for which the activation at 57 µM was 122 ± 6.1%. Further, the AC50 under setting [1] came out at 63 ± 20 nM.

Take `CCc1cc2c(s1)c1cnn(Cc3ccccc3F)c(=O)c1n2C` [Compound 68, 2-Ethyl-4-methyl-6-[(2-fluorophenyl)methyl]-4H-thieno[3,2-b]pyrrole[3,2-d]pyridazinone]: the activation at 57 µM was determined as 105 ± 5.8%. Further, the concentration at half-maximal activity (AC50) under setting [1] amounted to 100 ± 30 nM.

In the case of `Cn1c2ccsc2c2cnn(Cc3ccccc3F)c(=O)c21` [Compound 70, 4-Methyl-6-[(2-fluorophenyl)methyl]-4H-thieno[3,2-b]pyrrole[3,2-d]pyridazinone], the activation at 57 µM is 93.2 ± 6.6%. Besides, the AC50 under setting [1] came out at 605 ± 180 nM.

Take `COc1cc2c(s1)c1cnn(Cc3ccccc3F)c(=O)c1n2C` [Compound 71, 2-Methoxy-4-methyl-6-[(2-fluorophenyl)methyl]-4H-thieno[3,2-b]pyrrole[3,2-d]pyridazinone]: the AC50 under setting [1] is 86 ± 40 nM.

With `CSc1cc2c(s1)c1cnn(Cc3ccccc3F)c(=O)c1n2C` [Compound 72, 2-Methylthio-4-methyl-6-[(2-fluorophenyl)methyl]-4H-thieno[3,2-b]pyrrole[3,2-d]pyridazinone], the activation at 57 µM stood at 96.3 ± 3.8%. The half-maximal activity concentration (AC50) under setting [1] is 24 ± 10 nM.

Turning to `Cn1c2cc([N+](=O)[O-])sc2c2cnn(Cc3ccccc3F)c(=O)c21` [Compound 80, 2-Nitro-4-methyl-6-[(2-fluorophenyl)methyl]-4H-thieno[3,2-b]pyrrole[3,2-d]pyridazinone], the concentration at half-maximal activity (AC50) under setting [1] was determined as 18 ± 10 nM.

Take `CC(=O)Nc1cc2c(s1)c1cnn(Cc3ccccc3F)c(=O)c1n2C` [Compound 81, 2-Acetylamido-4-methyl-6-[(2-fluorophenyl)methyl]-4H-thieno[3,2-b]pyrrole[3,2-d]-pyridazinone]: the activation at 57 µM is 58.6 ± 23.5%.

Take `Cn1c2cc(C#N)sc2c2cnn(Cc3ccccc3F)c(=O)c21` [Compound 82, 2-Cyano-4-methyl-6-[(2-fluorophenyl)methyl]-4H-thieno[3,2-b]pyrrole[3,2-d]pyridazinone]: the activation at 57 µM came out at 84.1 ± 5.5%. In addition, the half-maximal activity concentration (AC50) under setting [1] turned out to be 47 ± 20 nM.

For the compound `COC(=O)c1cc2c(s1)c1cnn(Cc3ccccc3F)c(=O)c1n2C` [Compound 83, Methyl 4-methyl-6-[(2-fluorophenyl)methyl]-4,1-thieno[3,2-b]pyrrole[3,2-d]pyridazinone-2-carboxylate], the activation at 57 µM was 70.4 ± 12.9%. The AC50 under setting [1] was 84 ± 30 nM.

As to `Cn1c2cc(B(O)O)sc2c2cnn(Cc3ccccc3F)c(=O)c21` [Compound 86, 4-Methyl-6-[(2-fluorophenyl)methyl]-4,1-thieno[3,2-b]pyrrole[3,2-d]pyridazinone, 2-ylboronic acid], the activation at 57 µM turned out to be 101 ± 1.4%.

Regarding `CC(O)c1cc2c(s1)c1cnn(Cc3ccccc3F)c(=O)c1n2C` (centres unmarked) [Compound 88], the “hPK, M2 Max. Res.” value amounted to 119.7 ± 2.6%. Moreover, under setting [1], the AC50 was determined as 136 ± 10 nM.

As for `Cc1cc2[nH]c3c(=O)n(Cc4ccccc4F)ncc3c2s1` [Compound 89, 2-Methyl-6-[(2-fluorophenyl)methyl]-4H-thieno[3,2-b]pyrrole[3,2-d]pyridazinone], the activation at 57 µM was 32.9 ± 3.8%.

On to `CCn1c2cc(C)sc2c2cnn(Cc3ccccc3F)c(=O)c21` [Compound 90, 2-Methyl-4-ethyl-6-[(2-fluorophenyl)methyl]-4H-thieno[3,2-b]pyrrole[3,2-d]pyridazinone], for which the “hPK, M2 Max. Res.” value is given as 95.6 ± 6.3%. Under setting [1], the half-maximal activity concentration (AC50) turned out to be 5900 ± 1700 nM.

As to `CCCCCn1ncc2c3sc(C)cc3n(C)c2c1=O` [Compound 102, 2,4-Methyl-6-pentyl-4H-thieno[3,2-b]pyrrole[3,2-d]pyridazinone], the “PKM2 activation, result in words” value is “marked loss of potency”.

`Cc1cc2c(s1)c1cnn(Cc3ccccc3)c(=O)c1n2C` [Compound 103, 2,4-Methyl-6-phenylmethyl-4H-thieno[3,2-b]pyrrole[3,2-d]pyridazinone]: the half-maximal activity concentration (AC50) under setting [1] was 62 ± 20 nM.

Turning to `Cc1cc2c(s1)c1cnn(Cc3cccc(F)c3)c(=O)c1n2C` [Compound 104], the activation at 57 µM was 91.5 ± 8.4%. In addition, under setting [1], the half-maximal activity concentration (AC50) was 225 ± 100 nM.

The record behind these values is patent US8937067B2, “Activators of human pyruvate kinase” (The United States of America, as represented by the …, priority 2008, dated 2015).
